The values that follow are results of earlier work, collected in patent publication US8633332B2, “Efficient isolation of cimiracemate A, and methods of use” (Purapharm Company Limited, priority 2009, dated 2014).

“Also recorded” adds a separate entry of the source.

The subject of one data set is MAP kinase. The following applies: human macrophages.
Another data set relates to TNF-α. The settings on record: human macrophages.
Data set [1] relates to specific transcription factors. The following applies: human macrophages, LPS-induced.

With `COc1ccc(/C=C/C(=O)OCC(=O)Cc2ccc(O)c(O)c2)cc1O` [Cimiracemate A], the “inhibition of LPS-induced MAP kinase activities (specific kinase phosphorylation)” value with MAP kinase is “suppresses; also recorded: inhibit”. The “suppression of LPS-induced TNF-α production” value in the data set with TNF-α is reported as “suppresses; also recorded: suppress”. In data set [1], the “inhibition of activation of specific transcription factors” value is listed as “suppresses; also recorded: inhibit”.
